Reference: US20060140869A1, “Polymeric contrast agents for use in medical imaging” (priority 2004, published 2006)

System: rat mammary adenocarcinoma (Mat B) tumor
Assay: MR imaging of subcutaneous Mat B tumors in rats after intravenous injection of polymeric contrast agent
Assay type: in vivo
Details: Mat B tumor in Fisher female rats
Experimental: Fisher female rats were implanted subcutaneously with rat mammary adenocarcinoma cells (ATTC Mat B cells) that were grown to a suitable density in tissue culture. The implanted cells grew into tumors of 1-2 cm diameter in about 10 to 14 days and continued to grow to larger sizes when experiments extended beyond that time frame.
The reptating polymer that was used (Polylysine-Gd-DTPA) was synthesized using a synthesis method described above with polymer length of 780 monomer units, molecular weight of 460 kDaltons, and about 98% of lysines acylated with DTPA (i.e. about 764 Gd ions). The animals were injected intravenously at a dose of 0.025 mmoles Gd/kG. FIG. 1 are a series of images taken wherein the imaging was done pre-injection, one minute after injection, 60 minutes after injection, and 24 hours after injection with a T1 weighted spin echo pulse sequence (TR=250 ms, TE=9 ms), 12 centimeter FOV, 1 millimeter slices. Receive coil was a solenoid coil of about 5 centimeters diameter. Imaging was done on a Signa 1.5 Tesla scanner.
FIG. 2 is a graph of the slopes in signal change for all the pixels in the tumor and the highest 10% of pixels in the tumor. The signals are heterogenous in space due to angiogenesis being most prevalent in the outer rim of the tumor. Thus in order to capture the regions of interest with high permeability, the average signal associated with the pixels of the entire tumor in the image slice is plotted in addition to the average signal associated with the highest 10% of the pixels. The highest 10% of the pixels represents the hypermeable regions associated with angiogenic processes. The use of all pixels represents the average values for the entire tumor which includes then the center of tumors which are often necrotic and unreactive in terms of blood perfusion. These regions are not biologically relevant and thus the total average values have more “noise” that are associated with the necrotic processes which are not of direct interest in the present case. […]

[1] = linear regression fit, intravenous injection, T1 weighted spin echo, 1.5 Tesla

Substance	magnetic resonance signal change compared with the polymer of Example 2 (0.025 mmoles Gd/kG intravenously)	slope of signal change, all the pixels in the tumor [1]	slope of signal change, highest 10% of the pixels in the tumor [1]
Polylysine-Gd-DTPA [Example 1]	enhanced magnetic resonance signals	–	–
Polylysine-Gd-DTPA [Example 2]	–	7 % per hour	14 % per hour
